Measurements taken from article PMC10283047, “Targeting β-catenin and PD-L1 simultaneously by a racemic supramolecular peptide for the potent immunotherapy of hepatocellular carcinoma” (Theranostics, 2023).

Tested on: RAW264.7 macrophagocytes
Experimental: Besides, we contrastively explored cellular uptakes of BBI, PDP, sBBI and sBBI&PDP into a macrophage cell line RAW264.7 and HCC cell line Hepa1-6. The fluorescence was derived from fluorescein isothiocyanate (FITC), FITC was linked to the amino-terminal of sBBI, and the sBBI with FITC was then combined with PDP to form FITC-sBBI&PDP.
Hepa1-6 cells are seeded in 6-well plates at an appropriate density, approximately 200,000 cells per
well. After cell attachment, 1 mL of drug was labeled with 10 µL of FITC (100:1). Keep away from
light, and co-incubate the drug with the cells for 10 minutes. Digest cells according to normal
procedures. After centrifugation, wash 2-3 times with PBS and resuspend in 150-200 µL PBS for
FACS detection. FITC was incubated with drugs for 30 minutes. Plate with 6 cm confocal laser
dishes, 100,000 cells per well. After cell attachment, FITC-labeled drug was added. Drugs were co-
cultured with cells for 6 h. Cells were washed twice with PBS and cellular uptake observed under a
confocal laser fluorescence microscope.

Substance	Cellular uptake
KFERQKILDSQEQLEHRERSLQT -(Hle)-RDIQRML-(2-Nal)-PC [BBI]	neither BBI nor PDP peptide showed cellular uptakes
CHEHEKFEQR-(PEG3)-nyskptdrqyhfrr [PDP]	neither BBI nor PDP peptide showed cellular uptakes
